Values quoted from earlier work in patent publication US10376520B2, “Methods for the treatment of cardiovascular disorders” (Galapagos NV, priority 2015, dated 2019).
Like-named read-outs stand apart in the source and are kept apart here.

Assays:
patients = details: first 3 months of exposure in the controlled clinical trials, cited from earlier work
RA patient = details: 10 mg bid for 6 weeks in RA patient; cited from earlier work

For `C[C@@H]1CCN(C(=O)CC#N)C[C@@H]1N(C)c1ncnc2[nH]ccc12` [Tofacitinib], the “mean [HDL] increased by” value (patients; 5 mg twice daily arm) is given as 10%, the “mean [LDL] increased by” value (patients; 5 mg twice daily arm) is given as 15% and the “mean [HDL] increased by” value (patients; 10 mg twice daily arm) is given as 12%. The “mean [LDL] increased by” value (patients; 10 mg twice daily arm) was 19%, the “mean [LDL]/[HDL] ratios” value (patients) was “essentially unchanged” and the “atherogenic index before and after treatment (unchanged)” value (RA patient) was “about 3.5”.
